Assays:
[1] = target: T1, sodium iodide symporter (zNIS) (Danio rerio, UniProt A0AC58G7K6); assay: […]- uptake inhibition in transduced HeLa cells; type: cell-based
T1 construct: gene slc5a5; N-terminally HA-tagged NIS (601 residues, NP_001082860.1) expressed in HeLa cells
T1 sequence (A0AC58G7K6 1-601): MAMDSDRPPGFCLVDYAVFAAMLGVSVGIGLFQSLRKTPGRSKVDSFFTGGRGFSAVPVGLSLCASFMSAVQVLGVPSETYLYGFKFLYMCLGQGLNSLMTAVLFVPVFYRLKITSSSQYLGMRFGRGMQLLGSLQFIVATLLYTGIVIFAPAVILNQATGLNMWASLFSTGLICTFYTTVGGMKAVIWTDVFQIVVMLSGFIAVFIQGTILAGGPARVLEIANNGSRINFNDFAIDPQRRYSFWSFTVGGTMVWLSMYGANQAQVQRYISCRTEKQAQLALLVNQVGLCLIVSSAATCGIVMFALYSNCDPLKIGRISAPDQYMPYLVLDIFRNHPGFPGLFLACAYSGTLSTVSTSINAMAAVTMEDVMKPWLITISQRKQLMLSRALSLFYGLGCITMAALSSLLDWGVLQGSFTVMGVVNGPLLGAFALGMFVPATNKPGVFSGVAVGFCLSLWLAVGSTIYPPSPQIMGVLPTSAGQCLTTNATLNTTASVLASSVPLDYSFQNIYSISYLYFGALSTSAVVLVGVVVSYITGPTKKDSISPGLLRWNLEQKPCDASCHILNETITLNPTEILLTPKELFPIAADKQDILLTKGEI

[2] = target: T2, sodium iodide symporter (wNIS) (Balaenoptera acutorostrata, UniProt A0A384B8D1); assay: […]- uptake inhibition in transduced HeLa cells; type: cell-based
T2 construct: gene SLC5A5; N-terminally HA-tagged NIS (642 residues, XP_007195539.1) expressed in HeLa cells
T2 sequence (A0A384B8D1 1-642): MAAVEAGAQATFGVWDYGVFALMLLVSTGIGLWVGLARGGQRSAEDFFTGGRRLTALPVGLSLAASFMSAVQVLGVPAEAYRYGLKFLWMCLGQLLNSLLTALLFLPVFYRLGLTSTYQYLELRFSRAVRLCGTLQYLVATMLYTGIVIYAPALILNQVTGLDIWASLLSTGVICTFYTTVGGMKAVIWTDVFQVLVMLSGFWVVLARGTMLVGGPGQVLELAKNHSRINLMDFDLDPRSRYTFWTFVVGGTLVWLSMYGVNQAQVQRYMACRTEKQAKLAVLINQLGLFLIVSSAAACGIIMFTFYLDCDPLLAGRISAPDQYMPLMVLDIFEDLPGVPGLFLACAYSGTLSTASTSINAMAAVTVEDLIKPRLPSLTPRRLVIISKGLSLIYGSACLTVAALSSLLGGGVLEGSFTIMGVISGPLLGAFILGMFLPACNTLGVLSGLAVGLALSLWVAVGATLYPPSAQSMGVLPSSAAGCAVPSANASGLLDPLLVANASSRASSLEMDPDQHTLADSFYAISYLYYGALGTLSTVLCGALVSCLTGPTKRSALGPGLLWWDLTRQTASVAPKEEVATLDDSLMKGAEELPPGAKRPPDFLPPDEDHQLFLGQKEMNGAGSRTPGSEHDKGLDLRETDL

[3] = target: T3, sodium iodide symporter (hNIS) (Homo sapiens, UniProt Q92911); assay: […]- uptake inhibition in transduced HeLa cells; type: cell-based
T3 construct: gene SLC5A5; N-terminally HA-tagged NIS (643 residues) expressed in HeLa cells
T3 sequence (Q92911 1-643): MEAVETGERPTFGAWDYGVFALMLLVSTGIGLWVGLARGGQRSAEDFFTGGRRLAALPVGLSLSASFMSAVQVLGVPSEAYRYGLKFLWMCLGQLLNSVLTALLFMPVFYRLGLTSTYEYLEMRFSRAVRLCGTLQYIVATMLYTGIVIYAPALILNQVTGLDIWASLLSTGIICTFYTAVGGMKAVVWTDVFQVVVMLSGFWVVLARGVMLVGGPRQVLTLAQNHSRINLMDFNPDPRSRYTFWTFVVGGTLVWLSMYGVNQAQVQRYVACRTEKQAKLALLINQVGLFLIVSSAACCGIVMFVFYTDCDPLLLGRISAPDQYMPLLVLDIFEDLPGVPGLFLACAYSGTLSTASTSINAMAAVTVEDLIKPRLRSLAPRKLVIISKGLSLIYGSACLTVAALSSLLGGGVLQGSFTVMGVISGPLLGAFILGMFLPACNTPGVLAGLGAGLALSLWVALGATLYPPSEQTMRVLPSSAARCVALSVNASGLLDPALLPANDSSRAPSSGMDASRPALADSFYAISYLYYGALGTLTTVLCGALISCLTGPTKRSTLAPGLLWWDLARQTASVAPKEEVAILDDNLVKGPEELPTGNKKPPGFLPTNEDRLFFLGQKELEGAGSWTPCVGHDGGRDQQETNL

[4] = substrate: I; assay: iodide uptake kinetics (Km) in transduced HeLa cells; type: cell-based, Balaenoptera acutorostrata; conditions: Na+
[5] = substrate: I; assay: as above; type: cell-based, Danio rerio; conditions: Na+
Description: iodide uptake kinetics (Km) in transduced HeLa cells on sodium iodide symporter (zNIS) | zNIS binds to iodide with the greatest affinity of the proteins examined in this study

[6] = substrate: I; assay: as above; type: cell-based, Homo sapiens; conditions: Na+

## [O-][Cl+3]([O-])([O-])O [perchlorate]
[1]
  IC50: 81 nM
[2]
  IC50: 4600 nM
[3]
  IC50: 1570 nM

B1: sodium iodide symporter (wNIS) (Balaenoptera acutorostrata) (protein)
chain: MAAVEAGAQATFGVWDYGVFALMLLVSTGIGLWVGLARGGQRSAEDFFTGGRRLTALPVGLSLAASFMSAVQVLGVPAEAYRYGLKFLWMCLGQLLNSLLTALLFLPVFYRLGLTSTYQYLELRFSRAVRLCGTLQYLVATMLYTGIVIYAPALILNQVTGLDIWASLLSTGVICTFYTTVGGMKAVIWTDVFQVLVMLSGFWVVLARGTMLVGGPGQVLELAKNHSRINLMDFDLDPRSRYTFWTFVVGGTLVWLSMYGVNQAQVQRYMACRTEKQAKLAVLINQLGLFLIVSSAAACGIIMFTFYLDCDPLLAGRISAPDQYMPLMVLDIFEDLPGVPGLFLACAYSGTLSTASTSINAMAAVTVEDLIKPRLPSLTPRRLVIISKGLSLIYGSACLTVAALSSLLGGGVLEGSFTIMGVISGPLLGAFILGMFLPACNTLGVLSGLAVGLALSLWVAVGATLYPPSAQSMGVLPSSAAGCAVPSANASGLLDPLLVANASSRASSLEMDPDQHTLADSFYAISYLYYGALGTLSTVLCGALVSCLTGPTKRSALGPGLLWWDLTRQTASVAPKEEVATLDDSLMKGAEELPPGAKRPPDFLPPDEDHQLFLGQKEMNGAGSRTPGSEHDKGLDLRETDL
notes: N-terminally HA-tagged NIS (642 residues, XP_007195539.1) expressed in HeLa cells
[4]
  Km: 30.04 µM

B2: sodium iodide symporter (zNIS) (Danio rerio) (protein)
chain: MAMDSDRPPGFCLVDYAVFAAMLGVSVGIGLFQSLRKTPGRSKVDSFFTGGRGFSAVPVGLSLCASFMSAVQVLGVPSETYLYGFKFLYMCLGQGLNSLMTAVLFVPVFYRLKITSSSQYLGMRFGRGMQLLGSLQFIVATLLYTGIVIFAPAVILNQATGLNMWASLFSTGLICTFYTTVGGMKAVIWTDVFQIVVMLSGFIAVFIQGTILAGGPARVLEIANNGSRINFNDFAIDPQRRYSFWSFTVGGTMVWLSMYGANQAQVQRYISCRTEKQAQLALLVNQVGLCLIVSSAATCGIVMFALYSNCDPLKIGRISAPDQYMPYLVLDIFRNHPGFPGLFLACAYSGTLSTVSTSINAMAAVTMEDVMKPWLITISQRKQLMLSRALSLFYGLGCITMAALSSLLDWGVLQGSFTVMGVVNGPLLGAFALGMFVPATNKPGVFSGVAVGFCLSLWLAVGSTIYPPSPQIMGVLPTSAGQCLTTNATLNTTASVLASSVPLDYSFQNIYSISYLYFGALSTSAVVLVGVVVSYITGPTKKDSISPGLLRWNLEQKPCDASCHILNETITLNPTEILLTPKELFPIAADKQDILLTKGEI
notes: N-terminally HA-tagged NIS (601 residues, NP_001082860.1) expressed in HeLa cells
[5]
  Km: 3.688 µM

B3: sodium iodide symporter (hNIS) (Homo sapiens) (protein)
chain: MEAVETGERPTFGAWDYGVFALMLLVSTGIGLWVGLARGGQRSAEDFFTGGRRLAALPVGLSLSASFMSAVQVLGVPSEAYRYGLKFLWMCLGQLLNSVLTALLFMPVFYRLGLTSTYEYLEMRFSRAVRLCGTLQYIVATMLYTGIVIYAPALILNQVTGLDIWASLLSTGIICTFYTAVGGMKAVVWTDVFQVVVMLSGFWVVLARGVMLVGGPRQVLTLAQNHSRINLMDFNPDPRSRYTFWTFVVGGTLVWLSMYGVNQAQVQRYVACRTEKQAKLALLINQVGLFLIVSSAACCGIVMFVFYTDCDPLLLGRISAPDQYMPLLVLDIFEDLPGVPGLFLACAYSGTLSTASTSINAMAAVTVEDLIKPRLRSLAPRKLVIISKGLSLIYGSACLTVAALSSLLGGGVLQGSFTVMGVISGPLLGAFILGMFLPACNTPGVLAGLGAGLALSLWVALGATLYPPSEQTMRVLPSSAARCVALSVNASGLLDPALLPANDSSRAPSSGMDASRPALADSFYAISYLYYGALGTLTTVLCGALISCLTGPTKRSTLAPGLLWWDLARQTASVAPKEEVAILDDNLVKGPEELPTGNKKPPGFLPTNEDRLFFLGQKELEGAGSWTPCVGHDGGRDQQETNL
notes: N-terminally HA-tagged NIS (643 residues) expressed in HeLa cells
[6]
  Km: 12.01 µM

Reference: paper PMC7034854, “Inter-species variation in monovalent anion substrate selectivity and inhibitor sensitivity in the sodium iodide symporter (NIS)” (PLoS ONE, 2020)
